Source: patent US6806267B1, “Apoptosis-inducing compounds” (priority 1998, dated 2004)
Like-named read-outs stand apart in the source and are kept apart here.

Key:
Assay type in all cases: cell-based, human
p42-44 = test: Western blot of p42-44 activation in K562 cells
[1] = system: tyrosine phosphorylated proteins; test: Protein tyrosine phosphorylation Western blot, Jurkat cells
Description: Jurkat and CML cells (5×10^6) were harvested by centrifuigation at 1800 g for 10 min at 4° C. After being washed once with ice-cold phosphate-buffered saline, the cell pellet was suspended in 100 μl of ice-cold lysis buffer (50 mM Tris-HCl, pH 8.0, 150 mM NaCl, 0.1%.SDS, 1% Triton X-100, 1 mM sodium 1 mM phenylmethylsulfonyl, 10 ng/ml leupeptin and 10 ng/ml of aprotinin). The cells were left to sit on ice for 10 min and then centrifuged at 20,000 g for 20 min. The resulting supernatant was stored at −70° C. until measurement of tyrosine phosphorylation. Protein determination was measured by using the Bradford assay. Equal amounts of protein were resolved by SDS-polyacrylamide gel electrophoresis in 15% gels and transferred onto polyvinylidene difluoride (PVDF) membranes. Membranes were blocked with Tris-buffered saline with Tween 20 (10 mM Tris-HCl, pH 8.0, 150 mM NaCl, 0.05% Tween 20) containing 1% w/v BSA and probed with anti-phosphotyrosine antibody. Blots were washed, incubated with goat anti-mouse IgG peroxidase conjugate and developed by ECL according to the manufacturer's recommendations.

NFκB [2] = test: NF kappa B binding activity, Hut-78 cells
Description: (§1) Cells were fractionated, and nuclear extracts were prepared as described by Stylianou et al. (1992). Briefly, cells were added to ice-cold phosphate-buffered saline and centrifuged using a swing out rotor at 136×g. They were washed in buffer A (10 mM Hepes, pH 7.9, 1.5 mM MgCl2, 10 mM KCl, […] [PMSF]) and centrifuged at 10000×g for 10 min. They were treated with buffer A+0.1% (vol/vol) Nonidet P40 on ice for 10 min. They were then centrifuged at 10000×g for 10 min and the pellet was treated with buffer C (20 mM Hepes, pH 7.9, 420 mM NaCl, 1.5 mM MgCl2, 2 mM EDTA, 20% [vol/vol] glycerol, 0.5 mM PMSF) on ice for 15 min. This material was centrifuged at 10000×g for 10 min and the supernatant was added to 75 u l of buffer D [10 mM Hepes, pH 7.9, 50 mM KCl, 0.2 mM EDTA, 20% (vol/vol) glycerol, 0.5 mM PMSF] per sample. The protein concentration in this crude nuclear extract was determined using the method of Bradford (1976). Protein (4 μg) was incubated with 10000 cpm of a ^32P-labelled oligonucleotide, containing the consensus sequence for NF kappa B, with binding buffer [40% (vol/vol) glycerol, 1 mM EDTA, 10 mM Tris, pH 7.5, 100 mM NaCl, 0.1 mg/ml nuclease free BSA] and 2 μg of poly(dI-dC) at room temperature for 30 min. Samples were resolved on a 5% native polyacrylamide gel which was subsequently dried and autoradiographed at −70° C. overnight.

[3] = system: normal bone marrow progenitor cells; settings: 10 μM, 72 hours; for colonies scored, mean of 10 normal bone marrow samples: colonies scored after 14 days
Description: Bone Marrow samples from donor patients were suspended in RPMI and heparin. Approximately 5 mls of Lympoprep was poured into a sterilin and the bone marrow sample was gently layered on top. The sample was centrifuged at 1800 g for 25 min, brake at 2. Following centrifugation, the buffy coat layer which contained the mononucleur fraction was gently removed using a sterile pasteur pipette and was transferred to a fresh tube. Approximately 10 mls of RPMI was added and the sample was centrifuged at 1800 g for 10 minutes, brake at 9. The supernatant was removed and the wash repeated. The pellet was resuspended in approximately 2 mls of RPMI. 20 μl was removed from the sample, mixed with 380 μl of ethidium bromide/acridine orange mix.(each at 100 μg/ml in PBS, 1:1 v/v). Ethidium bromide and acridine orange are fluorescent dyes which bind DNA. Acridine orange intercalates into DNA giving it a green appearance. Ethidium bromide is taken up by non-viable cells only. This dye also intercalates into the DNA, making it appear orange. The cells were counted under a fluorescent microscope and the volume of cells was adjusted to obtain 4×10^6 cells per ml. Cells were divided into 2 flasks and treated with 0.5% (v/v) ethanol or 10 μM PBOX-6. 100 μl was taken from each flask and added to 1.9 mls of culture media (0.58 ml methylcellulose, 0.55 ml FCS, 0.18 ml BSA, 0.21 ml RPMI, 5 U/ml of granulocytoe monocyte-colony stimulating factor (GM-CSF) and 20 U/ml of erythropoietin (EPO). Tubes were mixed by vortexing and allowed to stand for 1 min before adding 0.5 ml into each of three wells of a 4 well dish. 0.5 ml of sterile water was added to the fourth well. Plates were incubated at 37° C. for 14 days. After 14 days, colonies were scored. A colony is scored as a cluster containing >40 cells, which originates form one stem cell. […]

[4] = system: CML cell lines K562, KYO.1 and Lama 84; test: Apoptosis in CML cell lines, cytospin and staining; settings: 24 hours (10 μM elsewhere in the source)
NFκB [5] = test: NF kappa B binding activity, HL-60 nuclear extracts; settings: HL-60 cells
Description: as §1

CN(C)C(=O)OC1=C(c2cccc3ccccc23)Oc2ccccc2-n2cccc21 [PBOX-6, 7-((Dimethylcarbamoyl)oxy)-6-(1-naphthyl)pyrrolo[2,1-d][1,5]benzoxazepine]
activation of p42-44 (p42-44): not activated | protein tyrosine phosphorylation [1]: time and dose-dependent decrease in protein tyrosine phosphorylation | effect on NFκB (NFκB [2]): had no effect on NFκB | effect on normal bone marrow progenitor cells [3]: no significant effect | colonies scored, mean of 10 normal bone marrow samples [3]: 17 | colonies scored, mean of 10 normal bone marrow samples ([3]; listed as PBOX 6): 16.9 | cells that had undergone apoptosis [4]: approximately 50% | effect on NFκB (NFκB [5]): failed to affect NFκB expression
